Assay results: US10357577B2, “Bacterial nitroreductase enzymes and methods relating thereto” (AUCKLAND UNISERVICES LIMITED, priority 2010, dated 2019)
Values joined by “and” are separate entries in the source; they are usually repeats but may differ in a detail not shown here. Equal values may be shown once. “Also recorded” adds a separate entry of the source.

Tests used:
[1] = system: nitroreductase NfsA-expressing HCT116 'activator' cells; assay: MCL (multicellular layer) bystander experiment, NfsA-dependent activation; assay type: cell-based, human; conditions: for bystander property (in words): MCL of NTR-expressing and parental HCT116 cells; for estimated bystander effect efficiency (BEE) / calculated bystander effect efficiency (BEE): hyperoxic (95% O2) MCLs; for estimated bystander effect efficiency (BEE): at concentrations achievable in α-MEM+10% FBS, activator fraction differs per experiment; for calculated bystander effect efficiency (BEE): HCT116-WT targets mixed with NfsA activators (activator fraction differs per experiment)
Experimental: Displacement of the Target cell survival curve to the left (T to Tc) is indicative of the presence of a cytotoxic metabolite(s) able to diffusible out of the sensitive activator (A) cell population. The prodrug concentrations for 10% survival (C10) of target cells (wild-type cells) grown without activators (T), targets in co-culture (TC) and activators (nfsA-expressing cells) in co-culture (AC) were determined by interpolation. BEE-Bystander effect efficiency calculates the drugs bystander effect: ((Log C10T−Log C10TC)/(Log C10T−Log C10AC)).
The prodrug concentrations for 10% survival (C10) of target cells (wild-type cells) grown without activators (T), and targets in co-culture (TC) and activators (NTR-expressing cells) in co-culture (AC) can be determined. The bystander effect of a test prodrug is measured by the bystander effect efficiency which can be calculated using the algorithm ((Log C10T−Log C10TC)/(Log C10T−Log C10AC)).
Millicell-CM membrane inserts (Millipore) were coated in calf-skin collagen type III (Sigma-Aldrich) to facilitate cell attachment. […] After exposure, inserts were disaggregated (0.07% trypsin, 10 min, 37° C., followed by 100 μg/ml DNAase I (Sigma-Aldrich). Cells were counted, resuspended and plated in P60 dishes to determine clonogenic survival. To discriminate clonogenic activator (NTR+) from target (NTR−) colonies cells were plated in non-selective medium (total cells) and medium containing 1 μM puromycin (activator cells). Colonies were grown in a 37° C. 5% CO2 incubator for 10 days before staining with methylene blue (2 g/liter in 50% v/v aqueous ethanol). Colonies containing >50 cells were counted as clonogenic survivors. Surviving fractions for each population was calculated as the plating efficiency for drug-treated MCLs/untreated controls. The drug concentrations for 10% survival (C10) of target cells grown without activators (T), targets in co-culture (Tc) and activators in co-culture (Ac) was determined by interpolation.

NfsB(Ec) = target: T1, NfsB(Ec) (Escherichia coli, UniProt P38489); assay: Growth Inhibition assay, NTR over-expressing E. coli SOS-R2; assay type: cell-based; conditions: elevated substrate concentrations (400 μM F-MISO, 600 μM HX4)
T1 construct: expressed in transfected cells; host or cells: E. coli SOS-R2 (endogenous nfsA, nfsB, nemA and azoR deleted) carrying pUCX::ntr
T1 sequence (P38489 whole entry): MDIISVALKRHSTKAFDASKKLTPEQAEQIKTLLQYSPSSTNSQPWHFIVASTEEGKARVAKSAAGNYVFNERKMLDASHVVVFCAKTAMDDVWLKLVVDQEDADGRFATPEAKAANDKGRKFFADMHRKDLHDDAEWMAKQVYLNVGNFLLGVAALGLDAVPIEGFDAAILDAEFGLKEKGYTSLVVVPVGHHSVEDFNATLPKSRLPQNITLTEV
Experimental: FIG. 34 (B) illustrates the metabolism of F-MISO by members of the 58 NTR over-expression library as measured by Growth Inhibition assay as described for FIG. 34A except that cells were challenged with 400 μM F-MISO.
FIG. 35 (B) illustrates the metabolism of HX4 by members of the 58 NTR over-expression library as measured by Growth Inhibition assay as described for FIG. 35A except that cells were challenged with 600 μM HX4.
Individual microtiter plate wells containing 200 μl LB+amp, 0.4% glucose were inoculated with SOS-R2 pUCX::ntr strains and incubated overnight at 30° C., 200 rpm. Ten μl of the overnight culture were used to inoculate 190 μl of fresh assay media (LB+amp, 0.05 mM IPTG, 0.2% glucose) and incubated at 30° C., 200 rpm for 3 h. The 200 μl culture was split into 100 μl duplicates which were supplemented with either 100 μl challenge media (assay media+250 uM EF5+2% DMSO) or 100 μl control media (assay media+2% DMSO). Initial OD600 readings were recorded and then plates incubated at 30° C., 200 rpm for 4 h after which final OD600 readings were taken and used to calculate strains respective growth inhibition in EF5 presence.

[2] = system: HCT116 cells expressing E. coli NfsA; assay type: cell-based, human; conditions: low cell density proliferation assay
Experimental: (§1) FIGS. 10 (B) and 10 (C) illustrates the results of evaluation of 2-nitroimidazole clinical imaging candidates with E. coli and non-E. coli NTRs. Stably-expressing cells were treated with varying concentration of 2-nitroimidazole prodrugs diluted in αMEM+5% FCS+P/S. Cells were exposed to prodrug for 18 hrs, washed and left to regrow for 5 days. IC50 was determined as the concentration of prodrug required to inhibit cell growth by 50% of untreated controls. IC50 values are mean for ≥2 independent experiments. WT:NTR ratio-ratio of IC50 means from WT cells versus NTR-expressing cell lines.
as §1, with “FIG. 21” for “FIGS. 10 (B) and 10 (C)”, “antiproliferative activity (IC50 value)” for “the results”, “prodrug” for “evaluation of 2-nitroimidazole clinical imaging”, “nitroreductases.” for “NTRs.”, “prodrug” for “2-nitroimidazole prodrugs”, “ratio-interexperimental ratio” for “ratio-ratio”
(§2) Isolated NTR gene sequences were subject to PCR and introduced in the bicistronic plasmid F579 via Gateway cloning (Invitrogen) as described by Prosser et al. (2010, Biochem Pharmacol, 79, 678-687). Stably transfected cell lines were created by transfection of the relevant plasmid using FuGENE 6 Transfection Reagent (Roche). Transfected cell populations were maintained by passage in puromycin
(§3) Cells were passaged in alpha-Minimal Essential Media, (αMEM; Gibco) supplemented with 5% FBS, (GIBCO NZ) without antibiotics. Cell were passaged for <3 months from frozen stocks and confirmed Mycoplasma free (PCR-ELISA; Roche Diagnostics). Cells were aliquoted into the 96-well plate (100 μL/well) and cells were left to attach (≥4 hrs). […] Plates were read on an ELx 808 Absorbance Microplate Reader (Bio-Tek Instruments). Absorbance was measured at 490 nm and 450 nm (final absorbance 490-450). […]

[3] = system: HCT116 cells expressing E. coli NfsB; assay: Monolayer antiproliferative (IC50) assay, NTR-expressing HCT116; assay type: cell-based, human; conditions: low cell density proliferation assay
Experimental: as §1
as §1, with “FIG. 21” for “FIGS. 10 (B) and 10 (C)”, “antiproliferative activity (IC50 value)” for “the results”, “prodrug” for “evaluation of 2-nitroimidazole clinical imaging”, “nitroreductases.” for “NTRs.”, “prodrug” for “2-nitroimidazole prodrugs”, “ratio-interexperimental ratio” for “ratio-ratio”
as §2, §3

[4] = system: HCT116-WT (parental) 'target' cells; assay: MCL (multicellular layer) bystander experiment, target cells; assay type: cell-based, human
Excerpt: FIG. 22 illustrates NfsA-dependent activation of TH-302 in an MCL bystander experiment. It includes a representative bystander efficiency graph. TH-302 dose-response curves for hyperoxic (95% O2) multicellular layers (MCLs) of HCT116-WT (parental) ‘target’ cells in the absence (T) and presence (Tc) of nitroreductase NfsA-expressing HCT116 ‘activator’ cells (A). MCLs are composed of ‘targets only’ (T) or as intimate mixtures of 29% (±4%) NfsA activators (A) and 71% targets (Tc). Displacement of the Target cell survival curve to the left (T to Tc) is indicative of the presence of a cytotoxic metabolite(s) able to diffusible out of the sensitive activator (A) cell population. The prodrug concentrations for 10% survival (C10) of target cells (wild-type cells) grown without activators (T), targets in co-culture (TC) and activators (nfsA-expressing cells) in co-culture (AC) were determined by interpolation. BEE-Bystander effect efficiency calculates the drugs bystander effect: ((Log C10T−Log C10TC)/(Log C10T−Log C10AC)). The calculated bystander effect efficiency is 43.4%.
Bystander effects can be quantified according to methods described in Wilson et al, 2002, Cancer Res. 62:1425-1432, by employing a 3D multicellular layer (MCL) composed of a minority (1%) of NTR-expressing ‘activator’ cells, mixed with a majority (99%) of parental (wild-type) ‘target’ cells. The prodrug concentrations for 10% survival (C10) of target cells (wild-type cells) grown without activators (T), and targets in co-culture (TC) and activators (NTR-expressing cells) in co-culture (AC) can be determined. The bystander effect of a test prodrug is measured by the bystander effect efficiency which can be calculated using the algorithm ((Log C10T−Log C10TC)/(Log C10T−Log C10AC)). […]
Millicell-CM membrane inserts (Millipore) were coated in calf-skin collagen type III (Sigma-Aldrich) to facilitate cell attachment. […] Surviving fractions for each population was calculated as the plating efficiency for drug-treated MCLs/untreated controls. […]

Compound | bystander property (in words) [1] | estimated bystander effect efficiency (BEE) [1] | also measured
O=C(Cn1ccnc1[N+](=O)[O-])NCCO [Etanidazole, N-(2-hydroxyethyl)-2-(2-nitro-1H-imidazol-1-yl)acetamide] | zero bystander property | 0% | 
O=[N+]([O-])c1nccn1Cc1cn(C(CO)CF)nn1 (stereo not shown) [HX4, 3-fluoro-2-(4-((2-nitro-1H-imidazol-1-yl)methyl)-1H-1,2,3-triazol-1-yl)propan-1-ol] |  |  | activity with 2-NI substrate (in words) (NfsB(Ec)): substantial activity
COCC(O)Cn1ccnc1[N+](=O)[O-] (stereo not shown) [Misonidazole, 1-methoxy-3-(2-nitro-1H-imidazol-1-yl)propan-2-ol] | zero bystander property | 0% | 
O=C1CN(/N=C/c2ccc([N+](=O)[O-])o2)C(=O)N1 [Nitrofurantoin, (E)-1-(((5-nitrofuran-2-yl)methylene)amino)imidazolidine-2,4-dione] | zero bystander property |  | calculated bystander effect efficiency (BEE) [1]: 0%
CS(=O)(=O)OCCN(CCBr)c1c(C(=O)NCCO)cc([N+](=O)[O-])cc1[N+](=O)[O-] [PR-104A, 2-((2-bromoethyl)(2-((2-hydroxyethyl)carbamoyl)-4,6-dinitrophenyl)amino)ethyl methanesulfonate] | marked bystander property | 89% | prodrug activation (in words) [2]: significant activation; prodrug activation (in words) [3]: significant activation
O=[N+]([O-])c1nccn1CC(O)CNCCBr (stereo not shown) [RB6145] | lack any measurable bystander effect |  | 
O=[N+]([O-])c1nccn1CC(O)CN1CC1 (stereo not shown) [RSU-1069, 1-(aziridin-1-yl)-3-(2-nitro-1H-imidazol-1-yl)propan-2-ol] | lack any measurable bystander effect |  | 
CN(CCO)C(=O)c1cc([N+](=O)[O-])cc([N+](=O)[O-])c1N(CCBr)CCBr [SN31609, 2-(bis(2-bromoethyl)amino)-N-(2-hydroxyethyl)-N-methyl-3,5-dinitrobenzamide] |  |  | prodrug activation (in words) [2]: significant activation; prodrug activation (in words) [3]: significant activation
Cn1c(COP(=O)(NCCBr)NCCBr)cnc1[N+](=O)[O-] [TH-302, N,N′-bis(2-bromoethyl)-(1-methyl-2-nitro-1H-imidazol-5-yl)methyl phosphorodiamidic acid ester] |  |  | calculated bystander effect efficiency (BEE) [1]: 43.4% and 43%; sterilisation of the nfsA-expressing cells in the MCL model ([1]; incubation with 90 nM TH-302): Greater than 90%; fold less sensitive, NfsA negative cells versus nfsA-expressing cells ([4]; MCL model): 210 fold; C10 (concentration for 10% survival) of NfsA negative cells in co-culture ([4]; MCL, targets in co-culture with activators): 1.86 µM; C10 (concentration for 10% survival) of NfsA negative cells ([4]; MCL, targets without activators): 18.9 µM
CCS(=O)(=O)CCn1c([N+](=O)[O-])cnc1C [Tinidazole, 1-(2-(ethylsulfonyl)ethyl)-2-methyl-5-nitro-1H-imidazole] | lack any measurable bystander effect; also recorded: zero bystander property | 0% | 
